Laboratory results published in patent publication US6489348B1, “Fungicidal mixtures based on amide compounds and pyridine derivatives” (BASF Aktiengesellschaft, priority 1997, dated 2002).

Tested on: powdery mildew of wheat (Erysiphe graminis forma specialis tritici)
Assay: Activity against powdery mildew of wheat (protective spray test on potted seedlings)
Assay type: in vivo
Settings: evaluated after 7 days
Method: The active ingredients, separately or together, are formulated as 10% emulsion in a mixture of 63% by weight of cyclohexanone and 27% by weight of emulsifier, and diluted with water to the desired concentration.
Evaluation is carried out by determining the infected leaf areas in percent. These percentages are converted into efficacies. The efficacy (W) is calculated as follows using Abbot's formula: […]
α corresponds to the fungal infection of the treated plants in % and β corresponds to the fungal infection of the untreated (control) plants in % An efficacy of 0 means that the infection level of the treated plants corresponds to that of the untreated control plants; an efficacy of 100 means that the treated plants were not infected.
The expected efficacies of the mixtures of the active ingredients were determined using Colby's formula [R. S. Colby, Weeds 15, 20-22 (1967)] and compared with the observed efficacies.
Colby formula: E=x+y −x·y/100
E expected efficacy, expressed in % of the untreated control, when using the mixture of the active ingredients A and B at the concentrations a and b x efficacy, expressed in % of the untreated control, when using active ingredient A at a concentration of a y efficacy, expressed in % of the untreated control, when using active ingredient B at a concentration of b Leaves of potted […] seedlings of the variety “Fruhgold” were sprayed to runoff point with an aqueous formulation of active ingredient prepared from a stock solution consisting of 10% of active ingredient, 63% of cyclohexanone and 27% of emulsifier. 24 hours after the spray coating had dried on, the leaves were dusted with spores of powdery mildew of wheat (Erysiphe graminis forma specialis tritici). The test plants were subsequently kept in a greenhouse at 20-24° C. and 60-90% relative atmospheric humidity. After 7 days, the extent of the mildew development was determined visually in % infection of the total leaf area.

[1] = 16 ppm active ingredient in the spray liquor
[2] = 63 ppm active ingredient in the spray liquor

| SMILES | Efficacy in % of the untreated control [1] | Efficacy in % of the untreated control [2] |
| --- | --- | --- |
| O=C(Nc1ccccc1-c1ccc(F)cc1)c1cccnc1Cl [I.1] | 0% | 0% |
| O=C(Nc1ccccc1-c1ccc(Cl)cc1)c1cccnc1Cl [I.2] | 0% | 0% |
